# Results taken from the supplement of paper PMC10307832.
# Legend:
# Experiment in all cases: relative viability (nuclei count vs DMSO), 5 days (fraction); higher = more cells survive
# EPLC-272H = test system: EPLC-272H
# Outline: (§1)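 One day after seeding in 1536-well plates, lung cancer cell lines were dosed by pin tool. Dosing was either single-drug or a fixed anchor-drug dose plus five library-drug doses (not always all listed) in √10 steps. After 5 days, nuclei were stained in one fix-and-stain step and counted on 4× images, and relative viability is the nuclei count of treated wells over that of vehicle wells, given as the median of duplicate plates.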
# NCI-H2170 = test system: NCI-H2170
# Outline: as §1
# NCI-H2023 = test system: NCI-H2023
# Outline: as §1
# NCI-H1793 = test system: NCI-H1793
# Outline: as §1
# UMC-11 = test system: UMC-11
# Outline: as §1
# COR-L23 = test system: COR-L23
# Outline: as §1
# NCI-H2347 = test system: NCI-H2347
# Outline: as §1
# NCI-H647 = test system: NCI-H647
# Outline: as §1
# NCI-H322M = test system: NCI-H322M
# Outline: as §1
# HCC-15 = test system: HCC-15
# Outline: as §1
# 201T = test system: 201T
# Outline: as §1
# NCI-H520 = test system: NCI-H520
# Outline: as §1
# H3255 = test system: H3255
# Outline: as §1
# NCI-H1734 = test system: NCI-H1734
# Outline: as §1
# NCI-H3122 = test system: NCI-H3122
# Outline: as §1
# NCI-H2405 = test system: NCI-H2405
# Outline: as §1
# NCI-H1650 = test system: NCI-H1650
# Outline: as §1
# PC-14 = test system: PC-14
# Outline: as §1
# NCI-H1563 = test system: NCI-H1563
# Outline: as §1
# LOU-NH91 = test system: LOU-NH91
# Outline: as §1
smiles,measurement,setting,value
O=c1cc(N2CCOCC2)oc2c(-c3cccc4c3sc3ccccc34)cccc12 + CS(=O)(=O)CCNCc1ccc(-c2ccc3ncnc(Nc4ccc(OCc5cccc(F)c5)c(Cl)c4)c3c2)o1 [Lapatinib] (partner 2 µM),relative viability,EPLC-272H; first compound 0.01 µM,1.15
same,relative viability,EPLC-272H; first compound 0.03162 µM,1.12
same,relative viability,EPLC-272H; first compound 0.3162 µM,0.928
same,relative viability,EPLC-272H; first compound 1 µM,0.825
same,relative viability,NCI-H2170; first compound 0.01 µM,0.241
same,relative viability,NCI-H2170; first compound 0.03162 µM,0.25
same,relative viability,NCI-H2170; first compound 0.1 µM,0.253
same,relative viability,NCI-H2170; first compound 0.3162 µM,0.285
same,relative viability,NCI-H2170; first compound 1 µM,0.274
same,relative viability,NCI-H2023; first compound 0.01 µM,0.88
same,relative viability,NCI-H2023; first compound 0.03162 µM,0.975
same,relative viability,NCI-H2023; first compound 0.1 µM,0.882
same,relative viability,NCI-H2023; first compound 0.3162 µM,0.826
same,relative viability,NCI-H2023; first compound 1 µM,0.887
same,relative viability,NCI-H1793; first compound 0.01 µM,0.707
same,relative viability,NCI-H1793; first compound 0.03162 µM,0.824
same,relative viability,NCI-H1793; first compound 0.1 µM,0.656
same,relative viability,NCI-H1793; first compound 0.3162 µM,0.499
same,relative viability,NCI-H1793; first compound 1 µM,0.45
same,relative viability,UMC-11; first compound 0.01 µM,0.997
same,relative viability,UMC-11; first compound 0.03162 µM,1.03
same,relative viability,UMC-11; first compound 0.1 µM,1.17
same,relative viability,UMC-11; first compound 0.3162 µM,0.995
same,relative viability,UMC-11; first compound 1 µM,0.951
same,relative viability,COR-L23; first compound 0.01 µM,1.01
same,relative viability,COR-L23; first compound 0.03162 µM,0.823
same,relative viability,COR-L23; first compound 0.1 µM,0.924
same,relative viability,COR-L23; first compound 0.3162 µM,0.843
same,relative viability,COR-L23; first compound 1 µM,1
same,relative viability,NCI-H2347; first compound 0.01 µM,0.953
same,relative viability,NCI-H2347; first compound 0.03162 µM,0.965
same,relative viability,NCI-H2347; first compound 0.1 µM,0.93
same,relative viability,NCI-H2347; first compound 0.3162 µM,0.942
same,relative viability,NCI-H2347; first compound 1 µM,0.973
same,relative viability,NCI-H647; first compound 0.01 µM,0.95
same,relative viability,NCI-H647; first compound 0.03162 µM,1.22
same,relative viability,NCI-H647; first compound 0.1 µM,1.04
same,relative viability,NCI-H647; first compound 0.3162 µM,1.22
same,relative viability,NCI-H647; first compound 1 µM,1
same,relative viability,NCI-H322M; first compound 0.01 µM,0.584
same,relative viability,NCI-H322M; first compound 0.03162 µM,0.6
same,relative viability,NCI-H322M; first compound 0.3162 µM,0.577
same,relative viability,NCI-H322M; first compound 1 µM,0.455
same,relative viability,HCC-15; first compound 0.01 µM,0.823
same,relative viability,HCC-15; first compound 0.03162 µM,0.881
same,relative viability,HCC-15; first compound 0.1 µM,0.999
same,relative viability,HCC-15; first compound 0.3162 µM,0.871
same,relative viability,HCC-15; first compound 1 µM,0.86
same,relative viability,201T; first compound 0.01 µM,1.11
same,relative viability,201T; first compound 0.03162 µM,1.03
same,relative viability,201T; first compound 0.1 µM,1.06
same,relative viability,201T; first compound 0.3162 µM,0.997
same,relative viability,201T; first compound 1 µM,0.968
same,relative viability,NCI-H520; first compound 0.01 µM,0.781
same,relative viability,NCI-H520; first compound 0.03162 µM,0.825
same,relative viability,NCI-H520; first compound 0.1 µM,0.767
same,relative viability,NCI-H520; first compound 0.3162 µM,0.816
same,relative viability,NCI-H520; first compound 1 µM,0.906
same,relative viability,H3255; first compound 0.01 µM,0.222
same,relative viability,H3255; first compound 0.03162 µM,0.286
same,relative viability,H3255; first compound 0.1 µM,0.258
same,relative viability,H3255; first compound 0.3162 µM,0.225
same,relative viability,H3255; first compound 1 µM,0.248
same,relative viability,NCI-H1734; first compound 0.01 µM,1.12
same,relative viability,NCI-H1734; first compound 0.03162 µM,1.03
same,relative viability,NCI-H1734; first compound 0.1 µM,1.12
same,relative viability,NCI-H1734; first compound 0.3162 µM,1.04
same,relative viability,NCI-H1734; first compound 1 µM,0.927
same,relative viability,NCI-H3122; first compound 0.01 µM,1.04
same,relative viability,NCI-H3122; first compound 0.03162 µM,0.961
same,relative viability,NCI-H3122; first compound 0.1 µM,1.03
same,relative viability,NCI-H3122; first compound 0.3162 µM,0.953
same,relative viability,NCI-H3122; first compound 1 µM,0.97
same,relative viability,NCI-H2405; first compound 0.01 µM,1.12
same,relative viability,NCI-H2405; first compound 0.03162 µM,1.18
same,relative viability,NCI-H2405; first compound 0.1 µM,1.04
same,relative viability,NCI-H2405; first compound 0.3162 µM,1.2
same,relative viability,NCI-H2405; first compound 1 µM,1.11
same,relative viability,NCI-H1650; first compound 0.03162 µM,0.831
same,relative viability,NCI-H1650; first compound 0.1 µM,0.775
same,relative viability,NCI-H1650; first compound 0.3162 µM,0.756
same,relative viability,NCI-H1650; first compound 1 µM,0.75
same,relative viability,PC-14; first compound 0.01 µM,0.331
same,relative viability,PC-14; first compound 0.03162 µM,0.32
same,relative viability,PC-14; first compound 0.1 µM,0.272
same,relative viability,PC-14; first compound 0.3162 µM,0.308
same,relative viability,PC-14; first compound 1 µM,0.302
same,relative viability,NCI-H1563; first compound 0.01 µM,1.27
same,relative viability,NCI-H1563; first compound 0.03162 µM,0.995
same,relative viability,NCI-H1563; first compound 0.1 µM,1.04
same,relative viability,NCI-H1563; first compound 0.3162 µM,0.762
same,relative viability,NCI-H1563; first compound 1 µM,0.782
same,relative viability,LOU-NH91; first compound 0.01 µM,0.775
same,relative viability,LOU-NH91; first compound 0.03162 µM,0.774
same,relative viability,LOU-NH91; first compound 0.1 µM,0.755
same,relative viability,LOU-NH91; first compound 0.3162 µM,0.744
same,relative viability,LOU-NH91; first compound 1 µM,0.764
